According to ChEMBL document CHEMBL3396995, “Synthesis and biological evaluation of novel pyrrolidine acid analogs as potent dual PPARα/γ agonists” (Bioorg Med Chem Lett, 2015):

What was measured:
[1] = Half life in rat at 10 mg/kg, po; type: ADME, organism-based; parameters: dose 10 mg/kg, route oral; conditions: in vivo
Mus musculus [2] = assay: Lipid lowering activity in db/db mouse assessed as reduction in fasting triglyceride level at 10 mg/kg, po dosed once daily for 14 days; type: functional; conditions: 336 h
[3] = target: T1, Peroxisome proliferator-activated receptor alpha (Homo sapiens, UniProt Q07869); assay: Agonist activity at GAL4 tagged human PPARalpha ligand binding domain expressed in HEK293 cells by luciferase reporter gene assay; type: cell-based; conditions: read-out: EC50
T1 sequence (Q07869 whole entry): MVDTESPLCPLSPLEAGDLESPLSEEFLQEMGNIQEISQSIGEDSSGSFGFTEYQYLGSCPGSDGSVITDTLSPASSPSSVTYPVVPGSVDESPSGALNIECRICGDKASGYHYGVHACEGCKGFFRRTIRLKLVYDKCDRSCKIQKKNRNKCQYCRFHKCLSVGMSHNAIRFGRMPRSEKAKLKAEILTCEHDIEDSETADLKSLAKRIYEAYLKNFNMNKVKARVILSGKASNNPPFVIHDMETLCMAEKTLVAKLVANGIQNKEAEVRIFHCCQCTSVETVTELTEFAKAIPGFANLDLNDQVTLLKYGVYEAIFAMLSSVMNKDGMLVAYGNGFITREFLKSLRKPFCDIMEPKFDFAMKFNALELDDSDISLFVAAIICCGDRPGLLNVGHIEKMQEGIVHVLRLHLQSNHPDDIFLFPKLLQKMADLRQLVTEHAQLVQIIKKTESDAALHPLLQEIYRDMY

Mus musculus [4] = assay: Antidiabetic activity in db/db mouse assessed as reduction in fasting glucose level at 10 mg/kg, po dosed once daily for 14 days; type: functional; conditions: 336 h
Cytochrome P450 2C9 = Cytochrome P450 2C9 (Homo sapiens, UniProt P11712); assay: Inhibition of CYP2C9 (unknown origin); type: ADME
Cytochrome P450 2C9, sequence (P11712 whole entry): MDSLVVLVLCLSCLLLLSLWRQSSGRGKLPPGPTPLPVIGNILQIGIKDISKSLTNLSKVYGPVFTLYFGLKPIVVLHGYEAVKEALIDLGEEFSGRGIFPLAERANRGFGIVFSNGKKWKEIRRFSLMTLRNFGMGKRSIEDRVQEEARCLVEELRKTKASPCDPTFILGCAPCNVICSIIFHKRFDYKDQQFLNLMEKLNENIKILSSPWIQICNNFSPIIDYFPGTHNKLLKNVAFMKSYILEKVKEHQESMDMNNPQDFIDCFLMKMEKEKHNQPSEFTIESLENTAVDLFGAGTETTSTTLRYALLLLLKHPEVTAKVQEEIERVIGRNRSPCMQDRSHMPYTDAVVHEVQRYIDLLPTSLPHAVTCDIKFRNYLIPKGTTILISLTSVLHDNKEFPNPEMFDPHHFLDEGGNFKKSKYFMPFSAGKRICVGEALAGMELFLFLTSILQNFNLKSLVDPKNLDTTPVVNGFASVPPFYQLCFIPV

Cytochrome P450 2C19 = Cytochrome P450 2C19 (Homo sapiens, UniProt P33261); assay: Inhibition of CYP2C19 (unknown origin); type: ADME
Cytochrome P450 2C19, sequence (P33261 whole entry, the tested form may be a part): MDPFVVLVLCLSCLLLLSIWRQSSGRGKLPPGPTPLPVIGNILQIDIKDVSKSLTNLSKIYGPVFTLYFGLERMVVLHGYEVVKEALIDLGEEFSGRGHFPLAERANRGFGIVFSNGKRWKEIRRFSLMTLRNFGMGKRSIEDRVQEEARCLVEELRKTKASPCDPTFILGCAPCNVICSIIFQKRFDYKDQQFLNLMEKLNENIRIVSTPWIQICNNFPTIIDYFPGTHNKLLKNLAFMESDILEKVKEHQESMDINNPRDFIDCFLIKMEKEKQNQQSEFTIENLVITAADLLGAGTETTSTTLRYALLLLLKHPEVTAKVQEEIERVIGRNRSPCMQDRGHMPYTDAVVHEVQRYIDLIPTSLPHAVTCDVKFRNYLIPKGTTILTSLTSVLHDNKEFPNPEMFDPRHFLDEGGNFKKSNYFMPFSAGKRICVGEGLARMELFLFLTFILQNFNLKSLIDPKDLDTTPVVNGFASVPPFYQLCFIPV

[5] = target: T2, Peroxisome proliferator-activated receptor gamma (Homo sapiens, UniProt P37231); assay: Agonist activity at GAL4 tagged human PPARgamma ligand binding domain expressed in HEK293 cells by luciferase reporter gene assay; type: cell-based
T2 sequence (P37231 whole entry): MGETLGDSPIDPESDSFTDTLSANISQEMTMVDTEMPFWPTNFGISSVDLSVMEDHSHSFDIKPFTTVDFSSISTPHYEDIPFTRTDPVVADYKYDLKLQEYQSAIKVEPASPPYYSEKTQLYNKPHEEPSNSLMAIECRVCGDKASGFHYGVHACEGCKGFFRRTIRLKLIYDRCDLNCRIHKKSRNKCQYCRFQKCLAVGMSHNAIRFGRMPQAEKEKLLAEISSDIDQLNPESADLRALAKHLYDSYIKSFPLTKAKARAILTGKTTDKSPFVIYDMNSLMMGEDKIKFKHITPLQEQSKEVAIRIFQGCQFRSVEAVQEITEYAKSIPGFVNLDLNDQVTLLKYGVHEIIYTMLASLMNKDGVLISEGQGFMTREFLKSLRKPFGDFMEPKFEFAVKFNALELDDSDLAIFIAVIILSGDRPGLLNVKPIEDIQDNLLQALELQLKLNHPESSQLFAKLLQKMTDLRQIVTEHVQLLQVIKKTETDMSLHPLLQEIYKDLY

Rattus norvegicus = assay: Volume of distribution at steady state in rat at 10 mg/kg, po; type: ADME, organism-based; parameters: dose 10 mg/kg, route oral; conditions: in vivo
[6] = target: T2, Peroxisome proliferator-activated receptor gamma
Description: (§1) Binding affinity to PPARgamma (unknown origin) using fluorescein-tagged dual PPARalpha/gamma activator by homogeneous fluorescence polarization binding assay

[7] = Oral bioavailability in rat at 10 mg/kg; type: ADME, organism-based; conditions: in vivo
[8] = target: T1, Peroxisome proliferator-activated receptor alpha; assay: Binding affinity to PPARalpha (unknown origin) using fluorescein-tagged dual PPARalpha/gamma activator by homogeneous fluorescence polarization binding assay
[9] = target: T2, Peroxisome proliferator-activated receptor gamma; remark: listed apart in the source
Description: as §1

Row | half-life [1] | EC50 [3] | IC50 (Cytochrome P450 2C9) | IC50 (Cytochrome P450 2C19) | EC50 [5] | Vdss (Rattus norvegicus) | IC50 [6] | bioavailability [7] | IC50 [8] | IC50 [9] | Compound | inhibition in vivo at 10 mg/kg (Mus musculus [2]) | inhibition in vivo at 10 mg/kg (Mus musculus [4])
1 | 1.54 h | 90 nM | 3200 nM | 8800 nM | 30 nM | 0.47 L/kg | 20 nM | 65% | 960 nM | – | Cc1oc(-c2ccccc2)nc1CCOc1ccc(C[C@@H]2CN(c3nccc(C(F)(F)F)n3)C[C@@H]2C(=O)O)cc1 | 48% | 37%
2 | – | 5 nM | – | – | 30 nM | – | 80 nM | – | 180 nM | – | Cc1oc(-c2ccccc2)nc1CCOc1ccc(C[C@@H]2CN(C(=O)Oc3ccccc3)C[C@@H]2C(=O)O)cc1 | 12% | 30%
3 | – | 1 nM | – | – | 640 nM | – | – | – | 610 nM | 80 nM | Cc1oc(-c2ccccc2)nc1CCOc1ccc(C[C@@H]2CN(C(=O)Oc3ccccc3)C[C@@H]2C(=O)O)cc1 (racemic) | – | –
4 | – | 20 nM | – | – | 540 nM | – | 690 nM | – | 3270 nM | – | CCOC(=O)N1C[C@@H](CCc2ccc(OCCc3nc(-c4ccccc4)oc3C)cc2)[C@@H](C(=O)O)C1 (racemic) | – | –
5 | – | 10 nM | – | – | 160 nM | – | 90 nM | – | 480 nM | – | Cc1oc(-c2ccccc2)nc1CCOc1ccc(CC[C@@H]2CN(C(=O)Oc3ccccc3)C[C@@H]2C(=O)O)cc1 (racemic) | – | –
6 | – | 10 nM | – | – | > 10000 nM | – | 1590 nM | – | 1810 nM | – | CCOC(=O)N1C[C@H](CCc2ccc(OCCc3nc(-c4ccccc4)oc3C)cc2)[C@@H](C(=O)O)C1 (racemic) | – | –
7 | – | 980 nM | – | – | > 10000 nM | – | 340 nM | – | 3250 nM | – | Cc1oc(-c2ccccc2)nc1CCOc1ccc(CC[C@H]2CN(C(=O)Oc3ccccc3)C[C@@H]2C(=O)O)cc1 (racemic) | – | –
8 | – | 850 nM | – | – | > 10000 nM | – | 210 nM | – | 3090 nM | – | Cc1oc(-c2ccccc2)nc1CCOc1cccc(C[C@H]2CN(C(=O)Oc3ccccc3)C[C@@H]2CC(=O)O)c1 (racemic) | – | –
